Measured values as given in patent publication US8450527B2, “Amine derivative compounds for treating ophthalmic diseases and disorders” (Acucela Inc., priority 2007, dated 2013).

Experiments:
[1] = target: T1, visual cycle isomerase (Bos taurus, UniProt Q28175); test: In vitro isomerase inhibition assay, bovine RPE microsome membranes; assay type: biochemical; settings: inhibition of 11-cis retinol formation; values given as ranges
T1 construct: Bovine Retinal Pigment Epithelium (RPE) microsome membranes were the source of a visual cycle isomerase; from tissue; host or cells: bovine retinal pigment epithelium microsome membranes; CRALBP made in E. coli
T1 sequence (Q28175 2-533 limits assumed): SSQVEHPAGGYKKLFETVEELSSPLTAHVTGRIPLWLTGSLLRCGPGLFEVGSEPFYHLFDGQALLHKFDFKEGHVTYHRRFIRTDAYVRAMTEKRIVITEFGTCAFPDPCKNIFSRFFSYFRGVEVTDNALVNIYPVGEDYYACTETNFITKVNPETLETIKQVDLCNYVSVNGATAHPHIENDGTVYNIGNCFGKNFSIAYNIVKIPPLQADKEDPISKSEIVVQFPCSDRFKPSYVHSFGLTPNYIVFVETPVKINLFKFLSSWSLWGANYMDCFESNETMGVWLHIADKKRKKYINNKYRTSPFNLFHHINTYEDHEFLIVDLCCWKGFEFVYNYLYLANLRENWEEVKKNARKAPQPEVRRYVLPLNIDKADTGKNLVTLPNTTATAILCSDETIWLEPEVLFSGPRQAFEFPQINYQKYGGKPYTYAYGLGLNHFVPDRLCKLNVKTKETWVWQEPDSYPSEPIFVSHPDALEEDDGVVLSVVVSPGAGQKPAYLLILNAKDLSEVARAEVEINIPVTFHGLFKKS
Experimental: The capability of amine derivative compounds to inhibit the activity of a visual cycle isomerase was determined
Isomerase inhibition reactions were performed essentially as described (Stecher et al., J. Biol. Chem. 274:8577-85 (1999); see also Golczak et al., Proc. Natl. Acad. Sci. USA 102:8162-67 (2005)). Bovine Retinal Pigment Epithelium (RPE) microsome membranes were the source of a visual cycle isomerase.
Bovine RPE microsome membrane extracts were prepared according to methods described (Golczak et al., Proc. Natl. Acad. Sci. USA 102:8162-67 (2005)) and stored at −80° C. Crude RPE microsome extracts were thawed in a 37° C. water bath, and then immediately placed on ice. 50 ml crude RPE microsomes were placed into a 50 ml Teflon-glass homogenizer (Fisher Scientific, catalog no. 0841416M) on ice, powered by a hand-held DeWalt drill, and homogenized ten times upand down on ice under maximum speed. This process was repeated until the crude RPE microsome solution was homogenized. The homogenate was then subjected to centrifugation (50.2 Ti rotor (Beckman, Fullerton, Calif.), 13,000 RPM; 15360 Rcf) for 15 minutes at 4° C. The supernatant was collected and subjected to centrifugation at 42,000 RPM (160,000 Rcf; 50.2 Ti rotor) for 1 hour at 4° C. The supernatant was removed, and the pellets were suspended in 12 ml (final volume) cold 10 mM MOPS buffer, pH 7.0. The resuspended RPE membranes in 5 ml aliquots were homogenized in a glass-to-glass homogenizer (Fisher Scientific, catalog no.K885500-0021) to high homogeneity. Protein concentration was quantified using the BCA protein assay according to the manufacturer's protocol (Pierce, Rockford, Ill.). The homogenized RPE preparations were stored at −80° C.
Recombinant human apo cellular retinaldehyde-binding protein (CRALBP) was cloned and expressed according to standard methods in the molecular biology art (see Crabb et al., Protein Science 7:746-57 (1998); Crabb et al., J. Biol. Chem. 263:18688-92 (1988)). Briefly, total RNA was prepared from confluent ARPE^19 cells (American Type Culture Collection, Manassas, Va.), cDNA was synthesized using an oligo(dT)12-18 primer, and then DNA encoding CRALBP was amplified by two sequential polymerase chain reactions (see Crabb et al., J. Biol. Chem. 263:18688-92 (1988); Intres, et al., J. Biol. Chem. 269:25411-18 (1994); GenBank Accession No. L34219.1). The PCR product was sub-cloned into pTrcHis2-TOPO TA vector according to the manufacturer's protocol (Invitrogen Inc., Carlsbad, Calif.; catalog no. K4400-01), and then the sequence was confirmed according to standard nucleotide sequencing techniques. Recombinant 6×His-tagged human CRALBP was expressed in One Shot TOP 10 chemically competent E. coli cells (Invitrogen), and the recombinant polypeptide was isolated from E. coli cell lysates by nickel affinity chromatography using nickel (Ni) Sepharose XK16-20 columns for HPLC (Amersham Bioscience, Pittsburgh, Pa.; catalog no.17-5268-O2). The purified 6×His-tagged human CRALBP was dialyzed against 10 mM bis-tris-Propane (BTP) and analyzed by SDS-PAGE. The molecular weight of the recombinant human CRALBP was approximately 39 kDal.
Amine derivative compounds and control compounds were reconstituted in ethanol to 0.1 M. Ten-fold serial dilutions (10^−2, 10^−3, 10^−4, 10^−5, 10^−6 M) in ethanol of each compound were prepared for analysis in the isomerase assay.
The isomerase assay was performed in 10 mM bis-tris-propane (BTP) buffer, pH 7.5, 0.5% BSA (diluted in BTP buffer), 1 mM sodium pyrophosphate, 20 μM all-trans retinol (in ethanol), and 6 μM apo-CRALBP. The test compounds (2 μl) (final 1/15 dilution of serial dilution stocks) were added to the above reaction mixture to which RPE microsomes were added. The same volume of ethanol was added to the control reaction (absence of test compound). Bovine RPE microsomes (9 μl) (see above) were then added, and the mixtures transferred to 37° C. to initiate the reaction (total volume=150 μl). […]

[2] = test system: retinoid nuclear receptors (RAR and RxR); test: Retinoid nuclear receptor activity

Structure (SMILES) | IC50 [1] | effects on retinoid nuclear receptors (RAR and RxR) [2]
CCCC(O)(CCC)CCc1cccc(CCCN)c1 [Example 3, 4-(3-(3-aminopropyl)phenethyl)heptan-4-ol] | ≤ 1 µM | 
NCCCc1cccc(CCC2(O)CCCCC2)c1 [Example 7, 1-(3-(3-aminopropyl)phenethyl)cyclohexanol] | ≤ 1 µM | did not show significant effects
CCCC(O)(CCC)CCc1cccc(OCCN)c1 [Example 9, 4-(3-(2-aminoethoxy)phenethyl)heptan-4-ol] | ≤ 1 µM | 
NCCOc1cccc(CCC2(O)CCCCCC2)c1 [Example 10, 1-(3-(2-aminoethoxy)phenethyl)cycloheptanol] | ≤ 1 µM | 
NCCOc1cccc(CCC2(O)CCCCC2)c1 [Example 12, 1-(3-(2-aminoethoxy)phenethyl)cyclohexanol] | ≤ 1 µM | did not show significant effects
NCCC(O)c1cccc(CCC2(O)CCCCC2)c1 (stereo not drawn) [Example 15, 1-(3-(3-amino-1-hydroxypropyl)phenethyl)cyclohexanol] | ≤ 1 µM | 
NCCC(O)c1cccc(CCC2(O)CCCCCC2)c1 (stereo not drawn) [Example 16, 1-(3-(3-amino-1-hydroxypropyl)phenethyl)cycloheptanol] | ≤ 1 µM | did not show significant effects
CCCC(O)(CCC)CCc1cccc(C(O)CCN)c1 (stereo not drawn) [Example 19, 4-(3-(3-amino-1-hydroxypropyl)phenethyl)heptan-4-ol] | ≤ 1 µM | 
CCCCCc1cccc(CCCN)c1 [Example 27, 3-(3-pentylphenyl)propan-1-amine] | ≤ 1 µM | 
NCCCc1cccc(CCCCc2ccccc2)c1 [Example 35, 3-(3-(4-phenylbutyl)phenyl)propan-1-amine] | ≤ 1 µM | 

Second part, the compound after the results:

IC50 [1] | effects on retinoid nuclear receptors (RAR and RxR) [2] | Structure (SMILES)
≤ 1 µM |  | NCCOc1cccc(CCC2(O)CCSCC2)c1 [Example 11, 4-(3-(2-aminoethoxy)phenethyl)tetrahydro-2H-thiopyran-4-ol]
≤ 1 µM |  | NCCC(O)c1cccc(CCC2CCCC2)c1 (stereo not drawn) [Example 17, 3-amino-1-(3-(2-cyclopentylethyl)phenyl)propan-1-ol]
≤ 1 µM | did not show significant effects | NCCCc1cccc(CCC2(O)CCCCCC2)c1 [Example 20, 1-(3-(3-aminopropyl)phenethyl)cycloheptanol]
≤ 1 µM |  | CC(C)(C)CCc1cccc(CCCN)c1 [Example 29, 3-(3-(3,3-dimethylbutyl)phenyl)propan-1-amine]
